“Also recorded” adds a separate entry of the source.
How the values were obtained:
AimR^Kat = target: T1, AimR^Kat (Bacillus subtilis (Katmira prophage), UniProt A0A8I3AZZ2); assay type: binding, Katmira phage; details: for Tm: Supplementary Fig. 5a, peptides at 0.5mM; for effect on Tm / stabilisation (in words): ThermoFluor
T1 sequence (A0A8I3AZZ2 2-387): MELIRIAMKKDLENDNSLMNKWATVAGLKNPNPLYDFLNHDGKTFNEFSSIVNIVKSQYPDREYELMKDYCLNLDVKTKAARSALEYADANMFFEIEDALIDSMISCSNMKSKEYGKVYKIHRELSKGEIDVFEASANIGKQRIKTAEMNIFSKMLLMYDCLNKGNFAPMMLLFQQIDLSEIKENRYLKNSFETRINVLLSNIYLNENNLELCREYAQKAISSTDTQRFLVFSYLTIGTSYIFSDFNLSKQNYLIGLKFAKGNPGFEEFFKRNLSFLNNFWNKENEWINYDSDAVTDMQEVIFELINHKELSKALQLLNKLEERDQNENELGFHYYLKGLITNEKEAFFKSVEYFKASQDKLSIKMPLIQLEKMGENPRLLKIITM
Protocol: The thermal shift assay was conducted in a 7500 Fast Real time PCR System (Applied Biosystems) as previously described. Briefly, samples of 20 μl buffer (20 mM Tris pH 8 and 250 mM NaCl) containing 5× Sypro Orange (Sigma-Aldrich) and 20 μM of protein were loaded in 96-well PCR plates. […] Samples were heated from 25 to 85 °C in steps of one degree. Fluorescent intensity was plotted versus temperature and integrated with GraphPad Prism software using a Boltzmann model to calculate melting temperatures.

AimR^Kat-N273A [1] = target: T2, AimR^Kat-N273A (Bacillus subtilis, UniProt A0A8I3AZZ2, N274A); test: Thermal shift assay of AimR^Kat-N273A with peptides; assay type: binding, Katmira phage; details: ThermoFluor
Protocol: The thermal shift assay was conducted in a 7500 Fast Real time PCR System (Applied Biosystems) as previously described. Briefly, samples of 20 μl buffer (20 mM Tris pH 8 and 250 mM NaCl) containing 5× Sypro Orange (Sigma-Aldrich) and 20 μM of protein were loaded in 96-well PCR plates. To calculate the Tm in the presence of the peptide, 0.5 μM of GMPRGA or GIVRGA peptide was added to the mixture. Samples were heated from 25 to 85 °C in steps of one degree. Fluorescent intensity was plotted versus temperature and integrated with GraphPad Prism software using a Boltzmann model to calculate melting temperatures.

AimR^Kat-DNA interaction = test: EMSA, peptide-induced release of AimR^Kat from its DNA operator; assay type: biochemical, Katmira phage; details: protein preincubated with 0.5 μM peptide 10 min, repeated three times
Protocol: (§1) AimR binding to its operator and the inhibition induced by the arbitrium peptide was analysed by native polyacrylamide and agarose gel electrophoresis. Double strand DNA primer probes were purchased from Macrogen. DNA (10 ng µl^−1) and AimR (from 0.5 μM) protein was mixed in EMSA buffer (50 mM tris pH8, 250 mM NaCl). The samples were incubated for 10 min at room temperature. For peptide inhibition assay, protein was preincubated with 0.5 μM peptide for 10 min before DNA addition. Electrophoresis was then performed in 8% polyacrylamide gels in Tris-Borate-EDTA (TBE) buffer for about 150 min at 100 V at 4 °C.

[2] = tested on: AimR^Kat-N273A-DNA interaction; test: EMSA, peptide-induced release of AimR^Kat-N273A from its target DNA; assay type: biochemical, Katmira phage; details: protein preincubated with 0.5 μM peptide 10 min, repeated three times
Protocol: as §1

[3] = tested on: SPβ ΔaimR prophage complemented with AimR^SPβ; test: Prophage induction and phage titering, SPβ ΔaimR complemented with AimR^SPβ; assay type: cell-based, phage SPβ in B. subtilis; details: for phage titer: JP 20223, 5 μM peptide, MC induced
Protocol: For induction, an overnight culture was diluted 1/100 in LB media supplemented with 0.1 mM MnCl2 and 5 mM MgCl2 and then grown at 37 °C with 210 rpm shaking until reaching absorbance 0.2 at 600 nm. This step was repeated twice to ensure the cells were in exponential growth. After the second growth, Mitomycin C (MC) at 0.5 μg ml^−1 was added to the culture. Where experiments were performed to test the effect of peptide on phage titre, 5 μM of the relevant peptide was added before starting the second growth to ensure the bacteria cells were able to incorporate the peptide. The induced cultures were incubated at 30 °C with 80 rpm shaking for 4 h and then left overnight at room temperature. Following lysis, samples were filtered using 0.2 μm filters and lysates were stored at 4 °C until use.
The number of phage particles contained in the phage lysate of interest was quantified by a titering assay. An overnight culture of the relevant recipient strain (normally B. subtilis ∆6 or with the corresponding plasmid) was diluted 1/100 in LB supplemented with 0.1 mM MnCl2 and 5 mM MgCl2 and then grown at 37 °C with 210 rpm shaking until reaching absorbance 0.2 at 600 nm. When required 1 mM IPTG was added. Then, 100 μl of recipient bacteria was infected with 100 μl of serial dilutions of phage lysate in phage buffer (PhB; 1 mM NaCl, 0.05 M Tris pH 7.8, 0.1 mM MnCl2, 5 mM MgCl2) at room temperature for 10 min and 3 ml of phage top agar (LB media supplemented with 0.1 mM MnCl2 and 5 mM MgCl2 and 0.7 % agar) at 55 °C was added to the culture-phage mix and immediately poured over phage base agar plates (LB media supplemented with 0.1 mM MnCl2 and 5 mM MgCl2 and 1.5% agar). Plaques were counted after overnight growth at 37 °C temperature and photographed.

AimR^SPβ = details: previously reported; cited from earlier work
AimR^Kat-N273A [4] = target: T2, AimR^Kat-N273A; test: ITC, AimP binding to AimR^Kat-N273A; design: species or system Katmira phage; details: 25 °C, 25 mM Tris-HCl pH 8, 250 mM NaCl
Protocol: ITC assays were carried out in a Nano ITC Low Volume (TA instruments). In the assays, proteins (AimR^Kat or AimR^Kat-N273A) and peptides concentration were 10 and 50 μM, respectively, and both were diluted in buffer 25 mM Tris-HCl pH 8, 250 mM NaCl. The experiments were performed at 25 °C. The data obtained was integrated, corrected and analysed using the NanoAnalyze software (TA Instruments) with a single-site or two-site binding models.

Row | Substance | Tm (AimR^Kat) | effect on Tm / stabilisation (in words) (AimR^Kat) | stabilisation / binding capacity (in words) (AimR^Kat-N273A [1]) | release of AimR^Kat from DNA (AimR^Kat-DNA interaction) | release of AimR^Kat from DNA (AimR^Kat-DNA interaction; listed as GMPRGA) | release of AimR^Kat-N273A from DNA [2] | phage titer ([3]; repeat 1) | phage titer ([3]; repeat 2) | phage titer ([3]; repeat 3) | phage titer ([3]; repeat 4) | phage titer ([3]; repeat 5) | phage titer ([3]; repeat 6) | phage titer ([3]; repeat 7) | reduction of phage titre ([3]; MC 0.5 μg/ml, 5 μM peptide, compared with no peptide) | increase of Tm (AimR^SPβ) | binding by ITC (in words) (AimR^Kat-N273A [4]) | release of AimR^Kat from DNA (AimR^Kat-DNA interaction; listed as SAIRGA)
1 | GMPRGA [AimP^SPβ, the SPβ AimP peptide] | 43 ºC | did not have any effect | stabilises AimR^Kat-N273A | only AimP^Kat for the wt form | neither GMPRGA (AimP^SPβ) nor SAIRGA (the phi3T AimP peptide, AimP^Phi) (Fig. 1b) affected AimR^Kat in its ability to recognise its cognate DNA box | induce DNA releases for the N273A mutant form of AimR^Kat; also recorded: able to induce the release of AimR^Kat-N273A from its target DNA | 7.90E+08 pfu/ml | 9.60E+07 pfu/ml | 2.12E+09 pfu/ml | 6.30E+07 pfu/ml | 8.90E+07 pfu/ml | 2.90E+08 pfu/ml | 7.80E+07 pfu/ml | 10 times | 10 °C | – | –
2 | SAIRGA [AimP^Phi, the phi3T AimP peptide] | 43 ºC | did not have any effect | – | insensitive | – | insensitive | – | – | – | – | – | – | – | – | – | unable to bind | neither GMPRGA (AimP^SPβ) nor SAIRGA (the phi3T AimP peptide, AimP^Phi) (Fig. 1b) affected AimR^Kat in its ability to recognise its cognate DNA box
